28 compounds from patent US12378224B2 (Dong-A Socio Holdings Co., Ltd., priority 2016, dated 2025) can be followed below.

The experiment deals with human MER (528-end) (Homo sapiens (Human), UniProt Q12866). Description: HTRF Kinase Activity Biochemical Assay (KinEASE-TK). The conditions noted are these: 10 uM ATP. In outline: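 Recombinant human MER (528-end) phosphorylated biotin-TK peptide substrate, 1 h at room temperature. Reaction stopped with detection buffer containing 0.375 nM Eu3+-cryptate anti-TK antibody and 0.062 uM streptavidin-XL665, 1 h further. Activity taken as HTRF ratio 665/620 nm ×10,000, 340 nm excitation.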
Chain of human MER (528-end) (Q12866 528-999 limits assumed): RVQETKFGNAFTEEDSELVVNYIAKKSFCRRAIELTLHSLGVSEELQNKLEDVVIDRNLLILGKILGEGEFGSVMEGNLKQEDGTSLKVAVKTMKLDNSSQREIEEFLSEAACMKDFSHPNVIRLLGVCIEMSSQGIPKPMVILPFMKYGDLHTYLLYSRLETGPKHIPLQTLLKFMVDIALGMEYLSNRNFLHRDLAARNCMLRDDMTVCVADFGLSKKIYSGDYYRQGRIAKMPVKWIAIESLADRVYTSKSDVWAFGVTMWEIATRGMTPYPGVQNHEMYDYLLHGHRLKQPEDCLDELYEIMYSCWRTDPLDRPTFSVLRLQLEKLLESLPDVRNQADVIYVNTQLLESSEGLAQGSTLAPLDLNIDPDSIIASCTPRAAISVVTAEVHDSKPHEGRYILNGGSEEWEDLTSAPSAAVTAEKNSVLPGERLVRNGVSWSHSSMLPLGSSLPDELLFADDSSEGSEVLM

The term IC50 denotes the point on the concentration scale where inhibition reaches its midpoint. A low value points to inhibition by little substance. Compound `CC(NCc1ccc(-c2cccc3c(C(=O)N4CC[C@@H](NC(=O)c5cc(-c6cnn(C)c6)cnc5N)C4)cccc23)cc1)C1CCN(C)CC1` (stereo partly shown) [Example 445] returned an IC50 of over 1000 nM.
The same measure for `CN1CCN(Cc2ccc(Oc3cccc(C(=O)N4CC[C@@H](NC(=O)c5cc(-c6cnn(C)c6)cnc5N)C4)c3)cc2)CC1` [Example 446, (R)-2-amino-5-(1-methyl-1H-pyrazol-4-yl)-N-(1-(3-(4-((4-methylpiperazin-1-yl)methyl)phenoxy)benzoyl)pyrrolidin-3-yl)nicotinamide]: over 1000 nM; for `Cn1cc(-c2cnc(N)c(C(=O)N[C@@H]3CCN(C(=O)c4cccc(Oc5ccc(CN6CCC[C@@H]6CO)cc5)c4)C3)c2)cn1` [Example 447, 2-amino-N—((R)-1-(3-(4-(((R)-2-(hydroxymethyl)pyrrolidin-1-yl)methyl)phenoxy)benzoyl)pyrrolidin-3-yl)-5-(1-methyl-1H-pyrazol-4-yl)nicotinamide]: over 1000 nM; for `CN1CCN(Cc2ccc(Oc3ccc(C(=O)N4CC[C@@H](NC(=O)c5cc(-c6cnn(C)c6)cnc5N)C4)cc3)cc2)CC1` [Example 448, (R)-2-amino-5-(1-methyl-1H-pyrazol-4-yl)-N-(1-(4-(4-((4-methylpiperazin-1-yl)methyl)phenoxy)benzoyl)pyrrolidin-3-yl)nicotinamide]: over 1000 nM.
The same measure for `Cn1cc(-c2cnc(N)c(C(=O)N[C@@H]3CCN(C(=O)c4ccc(Oc5ccc(CN6CCC[C@@H]6CO)cc5)cc4)C3)c2)cn1` [Example 449]: over 1000 nM.
The same measure for `Cn1cc(-c2cnc(N)c(C(=O)N[C@@H]3CCN(C(=O)c4cccc(-c5ccccc5)c4)C3)c2)cn1` [Example 450, (R)—N-(1-([1,1′-biphenyl]-3-carbonyl)pyrrolidin-3-yl)-2-amino-5-(1-methyl-1H-pyrazol-4-yl)nicotinamide]: over 1000 nM.
Regarding `Cn1cc(-c2cnc(N)c(C(=O)N[C@@H]3CCN(C(=O)c4cccc(-c5cnn(C6CCNCC6)c5)c4)C3)c2)cn1` [Example 451, (R)-2-amino-5-(1-methyl-1H-pyrazol-4-yl)-N-(1-(3-(1-(piperidin-4-yl)-1H-pyrazol-4-yl)benzoyl)pyrrolidin-3-yl)nicotinamide], the IC50 is over 1000 nM.
As for `CN1CCN(C(=O)Cc2cccc(-c3cccc(C(=O)N4CC[C@@H](NC(=O)c5cc(-c6cnn(C)c6)cnc5N)C4)c3)c2)CC1` [Example 452, (R)-2-amino-5-(1-methyl-1H-pyrazol-4-yl)-N-(1-(3′-(2-(4-methylpiperazin-1-yl)-2-oxoethyl)-[1,1′-biphenyl]-3-carbonyl)pyrrolidin-3-yl)nicotinamide], the figure is over 1000 nM; as for `CN1CCN(C(=O)Cc2ccc(-c3cccc(C(=O)N4CC[C@@H](NC(=O)c5cc(-c6cnn(C)c6)cnc5N)C4)c3)cc2)CC1` [Example 454, (R)-2-amino-5-(1-methyl-1H-pyrazol-4-yl)-N-(1-(4′-(2-(4-methylpiperazin-1-yl)-2-oxoethyl)-[1,1′-biphenyl]-3-carbonyl)pyrrolidin-3-yl)nicotinamide], over 1000 nM.
As for `CN1CCN(CCc2ccc(-c3cccc(C(=O)N4CC[C@@H](NC(=O)c5cc(-c6cnn(C)c6)cnc5N)C4)c3)cc2)CC1` [Example 455, (R)-2-amino-5-(1-methyl-1H-pyrazol-4-yl)-N-(1-(4′-(2-(4-methylpiperazin-1-yl)ethyl)-[1,1′-biphenyl]-3-carbonyl)pyrrolidin-3-yl)nicotinamide], the figure is over 1000 nM; as for `Cn1cc(-c2cnc(N)c(C(=O)N[C@@H]3CCN(C(=O)c4cccc(-c5cccc(C(=O)O)c5)c4)C3)c2)cn1` [Example 456, (R)-3′-(3-(2-amino-5-(1-methyl-1H-pyrazol-4-yl)nicotinamido)pyrrolidine-1-carbonyl)-[1,1′-biphenyl]-3-carboxylic acid], over 1000 nM.
As for `Cn1cc(-c2cnc(N)c(C(=O)N[C@@H]3CCN(C(=O)c4nc(-c5ccccc5)oc4C(F)(F)F)C3)c2)cn1` [Example 458, (R)-2-amino-5-(1-methyl-1H-pyrazol-4-yl)-N-(1-(2-phenyl-5-(trifluoromethyl)oxazole-4-carbonyl)pyrrolidin-3-yl)nicotinamide], the figure is over 1000 nM.
The compound `Cn1cc(-c2cnc(N)c(C(=O)N[C@@H]3CCN(C(=O)c4cccc(-c5cccc(Cn6cccn6)c5)c4)C3)c2)cn1` [Example 459, (R)—N-(1-(3′-((1H-pyrazol-1-yl)methyl)-[1,1′-biphenyl]-3-carbonyl)pyrrolidin-3-yl)-2-amino-5-(1-methyl-1H-pyrazol-4-yl)nicotinamide] came in with a half-inhibitory concentration (IC50) of over 1000 nM.
As for `Cn1cc(-c2cnc(N)c(C(=O)N[C@@H]3CCN(C(=O)c4cccc(-c5cccc(Cn6ccnc6)c5)c4)C3)c2)cn1` [Example 460, (R)—N-(1-(3′-((1H-imidazol-1-yl)methyl)-[1,1′-biphenyl]-3-carbonyl)pyrrolidin-3-yl)-2-amino-5-(1-methyl-1H-pyrazol-4-yl)nicotinamide], the figure is over 1000 nM; as for `Cn1cc(-c2cnc(N)c(C(=O)N[C@@H]3CCN(C(=O)c4cccc(-c5cccc(CN6CCOCC6)c5)c4)C3)c2)cn1` [Example 461, (R)-2-amino-5-(1-methyl-1H-pyrazol-4-yl)-N-(1-(3′-(morpholinomethyl)-[1,1′-biphenyl]-3-carbonyl)pyrrolidin-3-yl)nicotinamide], over 1000 nM; as for `Cn1cc(-c2cnc(N)c(C(=O)N[C@@H]3CCN(C(=O)c4cccc(-c5cccc(C(=O)N6CCSCC6)c5)c4)C3)c2)cn1` [Example 463, (R)-2-amino-5-(1-methyl-1H-pyrazol-4-yl)-N-(1-(3′-(thiomorpholine-4-carbonyl)-[1,1′-biphenyl]-3-carbonyl)pyrrolidin-3-yl)nicotinamide], over 1000 nM.
On to `Cn1cc(-c2cnc(N)c(C(=O)N[C@@H]3CCN(C(=O)c4cccc(-c5cccc(C(=O)N6CCNCC6)c5)c4)C3)c2)cn1` [Example 464, (R)-2-amino-5-(1-methyl-1H-pyrazol-4-yl)-N-(1-(3′-(piperazine-1-carbonyl)-[1,1′-biphenyl]-3-carbonyl)pyrrolidin-3-yl)nicotinamide], for which the half-maximal inhibitory concentration (IC50) is over 1000 nM.
The same measure for `Cn1cc(-c2cnc(N)c(C(=O)N[C@@H]3CCN(C(=O)c4cccc(-c5ccc(C(=O)N6CCNCC6)cc5)c4)C3)c2)cn1` [Example 465, (R)-2-amino-5-(1-methyl-1H-pyrazol-4-yl)-N-(1-(4′-(piperazine-1-carbonyl)-[1,1′-biphenyl]-3-carbonyl)pyrrolidin-3-yl)nicotinamide]: over 1000 nM; for `Cn1cc(-c2cnc(N)c(C(=O)N[C@@H]3CCN(C(=O)c4ccc(-c5cccc(C(=O)N6CCNCC6)c5)cc4)C3)c2)cn1` [Example 466, (R)-2-amino-5-(1-methyl-1H-pyrazol-4-yl)-N-(1-(3′-(piperazine-1-carbonyl)-[1,1′-biphenyl]-4-carbonyl)pyrrolidin-3-yl)nicotinamide]: 100 to 1000 nM.
The same measure for `Cn1cc(-c2cnc(N)c(C(=O)N[C@@H]3CCN(C(=O)c4ccc(-c5ccc(C(=O)N6CCNCC6)cc5)cc4)C3)c2)cn1` [Example 467, (R)-2-amino-5-(1-methyl-1H-pyrazol-4-yl)-N-(1-(4′-(piperazine-1-carbonyl)-[1,1′-biphenyl]-4-carbonyl)pyrrolidin-3-yl)nicotinamide]: over 1000 nM.
As for `Cc1nn(C)cc1-c1cccc(C(=O)N2CC[C@@H](NC(=O)c3cc(-c4cnn(C)c4)cnc3N)C2)c1` [Example 469, (R)-2-amino-N-(1-(3-(1,3-dimethyl-1H-pyrazol-4-yl)benzoyl)pyrrolidin-3-yl)-5-(1-methyl-1H-pyrazol-4-yl)nicotinamide], the figure is over 1000 nM; as for `Cn1cc(-c2cnc(N)c(C(=O)N[C@@H]3CCN(C(=O)c4cccc(-c5cnn(C6CCCC6)c5)c4)C3)c2)cn1` [Example 470, (R)-2-amino-N-(1-(3-(1-cyclopentyl-1H-pyrazol-4-yl)benzoyl)pyrrolidin-3-yl)-5-(1-methyl-1H-pyrazol-4-yl)nicotinamide], over 1000 nM.
Regarding `Cn1cc(-c2cnc(N)c(C(=O)N[C@@H]3CCN(C(=O)c4cccc(-c5cccnc5)c4)C3)c2)cn1` [Example 472, (R)-2-amino-5-(1-methyl-1H-pyrazol-4-yl)-N-(1-(3-(pyridin-3-yl)benzoyl)pyrrolidin-3-yl)nicotinamide], the IC50 is over 1000 nM.
As for `Cn1cc(-c2cnc(N)c(C(=O)N[C@@H]3CCN(C(=O)c4cccc(-c5ccncc5)c4)C3)c2)cn1` [Example 473, (R)-2-amino-5-(1-methyl-1H-pyrazol-4-yl)-N-(1-(3-(pyridin-4-yl)benzoyl)pyrrolidin-3-yl)nicotinamide], the figure is over 1000 nM.
The same measure for `Cn1cc(-c2cnc(N)c(C(=O)N[C@@H]3CCN(C(=O)c4cccc(-c5cc6ccccc6s5)c4)C3)c2)cn1` [Example 474, (R)-2-amino-N-(1-(3-(benzo[b]thiophen-2-yl)benzoyl)pyrrolidin-3-yl)-5-(1-methyl-1H-pyrazol-4-yl)nicotinamide]: over 1000 nM; for `CN1CCN(c2cccc(-c3cccc(C(=O)N4CC[C@@H](NC(=O)c5cc(-c6cnn(C)c6)cnc5N)C4)c3)c2)CC1` [Example 476, (R)-2-amino-5-(1-methyl-1H-pyrazol-4-yl)-N-(1-(3′-(4-methylpiperazin-1-yl)-[1,1′-biphenyl]-3-carbonyl)pyrrolidin-3-yl)nicotinamide]: over 1000 nM.
As for `Cn1cc(-c2cnc(N)c(C(=O)N[C@@H]3CCN(C(=O)c4cccc(-c5ccccc5Cl)c4)C3)c2)cn1` [Example 478, (R)-2-amino-N-(1-(2′-chloro-[1,1′-biphenyl]-3-carbonyl)pyrrolidin-3-yl)-5-(1-methyl-1H-pyrazol-4-yl)nicotinamide], the figure is over 1000 nM.
For `Cn1cc(-c2cnc(N)c(C(=O)N[C@@H]3CCN(C(=O)c4cccc(-c5cccc(Cl)c5)c4)C3)c2)cn1` [Example 479, (R)-2-amino-N-(1-(3′-chloro-[1,1′-biphenyl]-3-carbonyl)pyrrolidin-3-yl)-5-(1-methyl-1H-pyrazol-4-yl)nicotinamide], the IC50 is over 1000 nM.
